Article PMC3820767, “Turning Defense into Offense: Defensin Mimetics as Novel Antibiotics Targeting Lipid II” (PLoS Pathogens, 2013)
Read-outs that look alike come from different tables or passages of the source.

Experiments:
[1] = Surface Plasmon Resonance binding to immobilized 3-Lipid II; settings: SPR; for Binding on Lipid II?: Table S3, initial determination at 10 µM
Protocol: Surface Plasmon Resonance binding experiments were carried out on a BIAcore T100 system (BIAcore Inc., Piscataway, NY) at 25°C. The assay buffer was 10 mM HEPES, 150 mM NaCl, 0.05% surfactant P20, pH 7.4 (±3 mM EDTA) supplemented with 10% DMSO. […] For initial determination of binding, defensin mimetics were introduced into the flow-cells (30 µl/min) in the running buffer at 10 µM. Resonance signals were corrected for nonspecific binding by subtracting the background of the control flow-cell. After each analysis, the sensor chip surfaces were regenerated with 50 mM NaOH for 30 s at a flow rate 100 µl/min, and equilibrated with the buffer prior to next injection. For binding kinetics studies, binding isotherms were analyzed with manufacturer-supplied software for BIAcore T100.

[2] = tested on: Escherichia coli ATCC 25922; test: Antibacterial killing, 96-well turbidimetric (modified vCC) assay; assay type: cell-based; settings: Table S3; concentration at which 100% killing occurred, no bacterial regrowth; No = not active
Protocol: (§1) The antibacterial activity of defensin mimetics against Staphylococcus aureus ATCC 29213 and Escherichia coli 25922 was carried out in a 96-well turbidimetric assay essentially as described previously with the following modifications: bacteria were exposed for 30 min to compounds in 10 mM phosphate buffer containing 5% DMSO prior to addition of 2× Muller-Hinton medium. Bacterial growth was monitored for 12 hours and data were analyzed as described. Determination of MICs was performed by Micromyx, LLC (Kalamazoo, Michigan) according to CLSI standards.

[3] = tested on: Staphylococcus aureus ATCC 29213; test: as above; assay type: cell-based; settings: Table S3; concentration at which 100% killing occurred, no bacterial regrowth; No = not active
Protocol: as §1

Caco-2 = test: Cytotoxicity by MTT assay; assay type: cell-based, human

Compound	Binding on Lipid II? [1]	active against E.coli (IC100%) [2]	active against S.aureus (IC100%) [3]	cytotoxic for Caco II (C50% survival) (Caco-2)	IC50 (Caco-2) [µM]	cytotoxic for Caco II (C50% survival) (Caco-2; Table S3, No = not cytotoxic)	IC50 (Caco-2; Table S3, No = not cytotoxic, read-out: cytotoxic for Caco II (C50% survival)) [µM]	binding to Lipid II compared to wild-type HNP-1 ([1]; 10 µM peptide, 40 RUs 3-Lipid II)
Cc1cc2ccccc2n1C=CC1=[N+](C)c2ccccc2C1(C)C [4431/1, 1,3,3-trimethyl-2-(2-(2-methyl-1H-indol-1-yl)vinyl)-3H-1λ5-indole]	No	No	250 µM	No				
CN(C)c1ccc(C(c2ccc(N(C)C)cc2)C(O)c2ccccc2)cc1 (stereo not drawn) [35487/2, 2,2-bis(4-(dimethylamino)phenyl)-1-phenylethanol]	No	No	No	No				
CN(C)c1ccc(C2C=C(c3ccccc3)Oc3ccccc32)cc1 (stereo not drawn) [55870/1, N,N-dimethyl-4-(2-phenyl-4H-chromen-4-yl)aniline]	Yes	No	250 µM		25.9			
CCN1C(=CC(C)=Cc2sc3ccccc3[n+]2CC)Sc2ccccc21 [96932/4, 3-ethyl-2-(3-(3-ethyl-1,3-benzothiazol-2(3H)-ylidene)-2-methyl-1-propenyl)-1,3λ5-benzothiazole]	No	15.625 µM	15,6 µM		19			
OC(c1cccc2ccccc12)c1c2ccccc2cc2ccccc12 (stereo not drawn) [179415/1, 9-anthryl(1-naphthyl)methanol]	Yes	No	3,9 µM			No		
CCN1C(=CC(C)=Cc2sc3ccc4ccccc4c3[n+]2CC)Sc2ccc3ccccc3c21 [290437/2, 1-ethyl-2-(3-(1-ethylnaphtho[1,2-d][1,3]thiazol-2(1H)-ylidene)-2-methyl-1-propenyl)-1λ5-naphtho[1,2-d][1,3]thiazole]	No				2.2			
Cc1cc(C2c3ccccc3-c3ccccc32)cc(C)c1O [610995/1, 4-(9H-fluoren-9-yl)-2,6-dimethylphenol]	Yes	No	125 µM		9.2			
OCC(CO)C1c2cccc3ccc4cccc1c4c23 [625586/1, 2-(4H-cyclopenta[def]phenanthren-4-yl)-1,3-propanediol]	No	No	No		83.8			
COc1ccc(C=C[c+]2cc(-c3ccccc3)cc(-c3ccccc3)o2)cc1 [BAS00138032, 2-[2-(4-Methoxy-phenyl)-vinyl]-4,6-diphenyl-pyranylium]	No	No	No	No				
CC(C)(C)c1csc(N2N=C(c3ccccc3)C(=NNc3ccccc3)C2=O)n1 [BAS00691248, 2-(4-tert-Butyl-thiazol-2-yl)-5-phenyl-4-(phenyl-hydrazono)-2,4-dihydro-pyrazol-3-one]	No	No	No	No				
CCN(CC)CCCN1CN(CCCN(CC)CC)CN(CCCN(CC)CC)C1 [Compound 000A-0859, (3-{3,5-bis[3-(diethylamino)propyl]-1,3,5-triazinan-1-yl}propyl)diethylamine]	Yes	500 µM	500 µM		419			
OCCSc1c(F)c(SCCO)c(SCCO)c(F)c1SCCO [Compound 0438-0367, 2-({2,5-difluoro-3,4,6-tris[(2-hydroxyethyl)sulfanyl]phenyl}sulfanyl)ethan-1-ol]	No	No	No	No				
c1ccc(-c2nc(N(c3ccccc3)c3ccccc3)s[n+]2-c2ccccc2)cc1 [Compound 1492-0330, 5-(diphenylamino)-2,3-diphenyl-1,2$l^5,4-thiadiazol-2-ylium]	Yes							
CN1/C(=C/C=C2/SC(=S)N(c3ccccc3)C2=O)C(C)(C)c2ccccc21 [Compound 2101-0102, (5E)-3-phenyl-2-sulfanylidene-5-{2-[(2E)-1,3,3-trimethyl-2,3-dihydro-1H-indol-2-ylidene]ethylidene}-1,3-thiazolidin-4-one]			No	No				
Cc1cc2c(cc1C)CSC(c1ccc(O)cc1)SC2 [Compound 2729-1114, 4-(7,8-dimethyl-3,5-dihydro-1H-2,4-benzodithiepin-3-yl)phenol]	No	No	No				119	
CN(C)c1ccc(C=C2C=C(c3ccccc3)OC(c3ccccc3)=C2)cc1 [Compound 3377-0105, 4-[(2,6-diphenyl-4H-pyran-4-ylidene)methyl]-N,N-dimethylaniline]	No	No	500 µM		100			
CCC[N+](CC#CCO)(CC#Cc1ccccc1)CCC [Compound 4636-0141, (4-hydroxybut-2-yn-1-yl)(3-phenylprop-2-yn-1-yl)dipropylazanium]	No	No	No	No				
CCN1C(=O)C(c2ccc(O)cc2)(c2ccc(O)cc2)c2ccccc21 [Compound 4896-3423, 1-ethyl-3,3-bis(4-hydroxyphenyl)-2,3-dihydro-1H-indol-2-one]			No		72.1			
Fc1ccccc1CN1CCC(N2CCN(c3ccccc3)CC2)CC1 [Compound 5607-0206, 1-{1-[(2-fluorophenyl)methyl]piperidin-4-yl}-4-phenylpiperazine]	No	No	No			No		
O=Cc1ccc2c(c1)C1c3ccccc3C2c2ccccc21 [Compound 5100004, pentacyclo[6.6.6.0^{2,7}.0^{9,14}.0^{15,20}]icosa-2,4,6,9,11,13,15,17,19-nonaene-4-carbaldehyde]	No	No	No	No				
OCc1ccc2c(c1)C1c3ccccc3C2c2ccccc21 [Compound 5100015, pentacyclo[6.6.6.0~2,7~.0~9,14~.0~15,20~]icosa-2,4,6,9,11,13,15,17,19-nonaen-4-ylmethanol]	No	No	500 µM		68			
CC[n+]1c(/C=C/C=C2C=C(/C=C/N(C(C)=O)c3ccccc3)CC(C)(C)C/2)sc2ccccc21.[I-] [Compound 5119716, 2-[(1E)-3-[(1E)-5,5-dimethyl-3-[(E)-2-(N-phenylacetamido)ethenyl]cyclohex-2-en-1-ylidene]prop-1-en-1-yl]-3-ethyl-1,3-benzothiazol-3-ium iodide]	No	No	125 µM		52.7			
Cc1cc(C2(c3ccc(O)c(C)c3)C(=O)N(Cc3ccccc3)c3ccccc32)ccc1O [Compound 5142587, 1-benzyl-3,3-bis(4-hydroxy-3-methylphenyl)-2,3-dihydro-1H-indol-2-one]	No	No	15,625 µM		4.4			
Oc1ccc(O)c2c1C1c3ccccc3C2c2ccccc21 [Compound 5190620, pentacyclo[6.6.6.0^{2,7}.0^{9,14}.0^{15,20}]icosa-2(7),3,5,9,11,13,15,17,19-nonaene-3,6-diol]	No	No	62,5 µM		3.7			
OCCSc1ccc(Cc2ccc(SCCO)cc2)cc1 [Compound 5210734, 2,2'-[methylenebis(4,1-phenylenethio)]diethanol]	No	No	No	No				
OCCSc1ccc(-c2ccc(SCCO)cc2)cc1 [Compound 5230234, 2,2'-[4,4'-biphenyldiylbis(thio)]diethanol]	No	No	No			No		
HNP-1 R24A: single alanine mutant of HNP-1, Arg24 replaced by alanine								maintained significant binding
